# According to patent publication US20090298947A1, “POLYMORPHIC AND AMORPHOUS FORMS OF […] AMORPHOUS COMPOSITIONS” (PLIVA HRVATSKA D.O.O., priority 2008, published 2009):
# Assays:
# [1] = Interconversion of form II to form I in stirred suspension, crystal form determined using XRPD; format: physicochemical
# Description: Samples after being powdered in a mortar and pestle are applied directly on silicon plate holder. The X-ray powder diffraction pattern was measured with Philips X'Pert PRO X-ray powder diffractometer, equipped with Cu irradiation source=1.54060 ? ( ? ngstrom), X'C.elerator (2.022° 2Θ) detector. Scanning parameters: angle range: 3-40 deg., step size 0.0167, time per step 100 s, continuous scan. The accuracy of peak positions was defined as ±0.2 degrees due to experimental differences like instrumentations and sample preparations.
# 27.0 g of Lacosamide was dissolved in 300 ml of ethyl acetate. Solution crystallized by cooling at about 42° C. Suspension was cooled to 40° C. and samples were taken in time intervals, filtered and crystal form was determined using XRPD. […] Crystals were filtered, washed with ethyl acetate and dried at 50° C./vacuo yielding 20.0 g Lacosamide form I.
# 30.0 g of Lacosamide was dissolved in 239 ml of ethyl acetate and 1 ml of water. Solution crystallized by cooling at about 46° C. Suspension was cooled to 40° C. and samples were taken in time intervals, filtered and crystal form was determined using XRPD. […] Crystals were filtered, washed with cold ethyl acetate and dried at 50° C./vacuo yielding 22.9 g Lacosamide form I.
# [2] = Temperature dependent X-ray powder diffraction, heating of form II; format: physicochemical
# Description: Temperature dependent X-ray powder diffraction (TDXD) was carried out with a Bruker AXS D8 θ-θ powder diffractometer with parafocusing Bragg-Brentano geometry using CuKα radiation (λ=1.5418 Å, U=34 kV, I=20 mA). The sample was placed on a Pt/Rh ribbon in a MRI high-temperature oven-camera and VPSlits were used to fix the constant irradiated length (20 mm). Data were scanned with an ultrafast detector LynxEye over the angular range 3-38° (2θ) with a step size of 0.0196° (2θ) and a counting time of 58.6 s step^−1. The heating and cooling process was controlled by Eurotherm 2404.
# The sample of form II lacosamide (50 mg) was placed on a Pt/Rh ribbon in a MRI high-temperature oven-camera, and heated at rate of 10° C./min up to 100° C. The heating and cooling process was controlled by Eurotherm 2404.
Structure (SMILES),"crystal form determined using XRPD ([1]; suspension in ethyl acetate and water (239 ml/1 ml), after 2 hours at 40° C.)","crystal form determined using XRPD ([1]; suspension in ethyl acetate and water (239 ml/1 ml), sample taken immediately when temperature reached 40° C.)","crystal form determined using XRPD ([1]; suspension in ethyl acetate, after 2 hours at 40° C.)","crystal form determined using XRPD ([1]; suspension in ethyl acetate, after 4 hours at 40° C.)","crystal form determined using XRPD ([1]; suspension in ethyl acetate, sample taken immediately when temperature reached 40° C.)",temperature of transformation of form II to form III ([2]; heated at 10° C./min up to 100° C.),reversibility of transformation of form II to form III ([2]; sample cooled back to room temperature)
"COC[C@@H](NC(C)=O)C(=O)NCc1ccccc1 [Lacosamide, (R)-N-benzyl-2-acetamido-3-methoxypropionamide]",form I,mixture of form I and form II,mixture of form I and form II,form I,form II,–,–
"COC[C@@H](NC(C)=O)C(=O)NCc1ccccc1 [form II lacosamide, (R)-N-benzyl-2-acetamido-3-methoxypropionamide]",–,–,–,–,–,around 80 °C,completely reversible
